Test results from patent publication US9365613B2, “Acylated 4-amidino- and -4-guanidinobenzylamines for inhibition of plasma kallikrein” (The Medicines Company (Leipzig) GmbH, priority 2003, dated 2016).

Experiments:
Assay type in all cases: biochemical
human factor XIa = target: T1, human factor XIa (Homo sapiens, UniProt P03951); assay: Inhibitory constants for factor XIa (substrate H-D-Lys(Z)-Pro-Arg-pNA, Chromozym PCa); conditions: read-out: Ki F XIa
T1 construct: purchased Haemochrom Diagnostica GmbH, Essen, Germany
T1 sequence (P03951 388-625 limits assumed): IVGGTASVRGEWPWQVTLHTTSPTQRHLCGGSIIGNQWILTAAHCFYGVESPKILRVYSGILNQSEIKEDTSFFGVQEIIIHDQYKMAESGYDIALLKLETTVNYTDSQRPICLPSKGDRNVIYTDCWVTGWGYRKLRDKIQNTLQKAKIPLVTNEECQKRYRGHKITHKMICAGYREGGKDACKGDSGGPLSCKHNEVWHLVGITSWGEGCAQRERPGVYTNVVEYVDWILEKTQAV
T1 sequence (P03951 19-387 partner limits assumed): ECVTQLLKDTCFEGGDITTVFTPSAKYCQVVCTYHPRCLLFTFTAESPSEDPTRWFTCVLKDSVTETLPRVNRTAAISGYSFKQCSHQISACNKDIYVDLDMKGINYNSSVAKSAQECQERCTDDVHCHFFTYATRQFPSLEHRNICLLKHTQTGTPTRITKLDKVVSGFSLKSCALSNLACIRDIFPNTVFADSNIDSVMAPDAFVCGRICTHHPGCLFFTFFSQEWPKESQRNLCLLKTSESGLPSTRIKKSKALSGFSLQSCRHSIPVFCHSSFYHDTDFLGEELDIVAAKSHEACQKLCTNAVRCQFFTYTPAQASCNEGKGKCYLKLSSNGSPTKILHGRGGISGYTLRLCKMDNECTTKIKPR
Method: (§1) The inhibitory effect for the individual enzymes was determined in analogy with a method which has already been described (Stürzebecher et al., J. Med. Chem. 40, 3091-3099, 1997).
(§2) After 3 min, the reaction was terminated by adding 25 μl of acetic acid (50%) and the absorption at […] was determined using a Microplate Reader (Labsystems iEMS Reader MF). The Ki values were determined, in accordance with Dixon (Biochem. J. 55, 170-171, 1953), by means of linear regression and using a computer program. The Ki values are the mean of at least three determinations.
(§3) The inhibition of factor XIa and factor XIIa was determined in an analogous manner. When determining the inhibitory constants for human factor XIa (Haemochrom Diagnostica GmbH, Essen, Germany), H-D-Lys(Z)-Pro-Arg-pNA (Chromozym PCa, Roche Diagnostics GmbH, Mannheim, Germany) was used as the substrate.

thrombin = thrombin (UniProt P00735); assay: Inhibitory constants for thrombin; conditions: read-out: Ki Thrombin
human factor XIIa = target: T2, human factor XIIa (Homo sapiens, UniProt P00748); assay: Inhibitory constants for factor XIIa (substrate H-D-HHT-Gly-Arg-pNA, Chromozym XII); conditions: read-out: Ki F XIIa
T2 construct: purchased Haemochrom Diagnostica GmbH, Essen, Germany
T2 sequence (P00748 373-615 limits assumed, other chains not shown): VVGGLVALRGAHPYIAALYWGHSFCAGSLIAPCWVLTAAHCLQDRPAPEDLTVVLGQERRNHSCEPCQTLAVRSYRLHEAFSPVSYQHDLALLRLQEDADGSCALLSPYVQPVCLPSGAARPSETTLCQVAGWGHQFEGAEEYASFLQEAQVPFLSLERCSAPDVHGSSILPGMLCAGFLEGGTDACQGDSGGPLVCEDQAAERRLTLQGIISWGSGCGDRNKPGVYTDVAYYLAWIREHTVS
Method: as §1, §2, §3
H-D-HHT-Gly-Arg-pNA (Chromozym XII, Roche Diagnostics GmbH, Mannheim, Germany) was used as the substrate for measuring the inhibitory constants of human factor XIIa (Haemochrom Diagnostica GmbH, Essen, Germany).

plasma kallikrein (PK) = plasma kallikrein (PK) (Homo sapiens, UniProt P03952); assay: Determining the inhibitory constants: inhibition of PK (substrate Bzl-Pro-Phe-Arg-pNA); conditions: Tris buffer pH 8.0, 25° C.; mean of at least three determinations
plasma kallikrein (PK), sequence (P03952 391-638 limits assumed, species assumed): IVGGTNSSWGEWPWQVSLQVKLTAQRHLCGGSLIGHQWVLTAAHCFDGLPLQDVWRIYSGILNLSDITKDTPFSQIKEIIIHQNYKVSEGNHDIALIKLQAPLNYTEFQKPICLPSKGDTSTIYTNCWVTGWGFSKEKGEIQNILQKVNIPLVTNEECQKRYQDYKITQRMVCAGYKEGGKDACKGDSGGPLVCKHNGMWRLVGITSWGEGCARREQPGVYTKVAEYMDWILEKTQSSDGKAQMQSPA
plasma kallikrein (PK), sequence (P03952 20-390 partner limits assumed, species assumed): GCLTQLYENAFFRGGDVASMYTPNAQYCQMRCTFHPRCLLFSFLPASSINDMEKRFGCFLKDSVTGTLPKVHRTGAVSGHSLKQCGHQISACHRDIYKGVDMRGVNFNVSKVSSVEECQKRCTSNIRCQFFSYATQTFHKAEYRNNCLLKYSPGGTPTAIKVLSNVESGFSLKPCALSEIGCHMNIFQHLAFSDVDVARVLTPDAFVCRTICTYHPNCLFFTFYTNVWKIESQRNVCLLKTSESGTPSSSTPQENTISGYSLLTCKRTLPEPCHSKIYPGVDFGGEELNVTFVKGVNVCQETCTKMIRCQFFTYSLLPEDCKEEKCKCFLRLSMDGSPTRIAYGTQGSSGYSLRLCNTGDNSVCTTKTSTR
Method: as §1, §2

Structure (SMILES)	Ki (human factor XIa) [µM]	Ki (thrombin) [µM]	Ki (human factor XIIa) [µM]	Ki (plasma kallikrein (PK)) [µM]
CC(C)(C)OC[C@@H](NS(=O)(=O)Cc1ccccc1)C(=O)NCC(=O)NCc1ccc(C(=N)N)cc1 [Inhibitor 26]	1.4	0.22	2.6	0.34
C[C@H](NC(=O)[C@@H](COC(C)(C)C)NS(=O)(=O)Cc1ccccc1)C(=O)NCc1ccc(C(=N)N)cc1 [Inhibitor 27]	0.03	0.0021	2	0.061
CC(C)(C)OC[C@@H](NS(=O)(=O)Cc1ccccc1)C(=O)N1CCC[C@H]1C(=O)NCc1ccc(C(=N)N)cc1 [Inhibitor 28]	0.036	0.002	0.49	0.0065
CC(C)(C)OC[C@@H](NS(=O)(=O)Cc1ccccc1)C(=O)N[C@@H](CC(=O)O)C(=O)NCc1ccc(C(=N)N)cc1 [Inhibitor 29]	0.39	6	> 1000	0.91
CC(C)(C)OC[C@@H](NS(=O)(=O)Cc1ccccc1)C(=O)N[C@@H](CCC(=O)O)C(=O)NCc1ccc(C(=N)N)cc1 [Inhibitor 30]	0.079	2.6	19	0.36
CC(C)(C)OC[C@@H](NS(=O)(=O)Cc1ccccc1)C(=O)N[C@@H](CCC(N)=O)C(=O)NCc1ccc(C(=N)N)cc1 [Inhibitor 31]	0.067	0.021	6.3	0.0092
CC(C)(C)OC[C@@H](NS(=O)(=O)Cc1ccccc1)C(=O)NC(CC(=O)O)CC(=O)NCc1ccc(C(=N)N)cc1 (some centres unmarked) [Inhibitor 32]	8.2	> 1000	> 1000	8
CC(C)(C)OC[C@@H](NS(=O)(=O)Cc1ccccc1)C(=O)N[C@@H](CN)C(=O)NCc1ccc(C(=N)N)cc1 [Inhibitor 33]	0.19	0.0094	4	0.022
CC(C)(C)OC[C@@H](NS(=O)(=O)Cc1ccccc1)C(=O)N[C@@H](CNC(=O)OCc1ccccc1)C(=O)NCc1ccc(C(=N)N)cc1 [Inhibitor 34]	0.31	0.37	0.93	0.025
CC(C)(C)OC[C@@H](NS(=O)(=O)Cc1ccccc1)C(=O)N[C@@H](CCCCN)C(=O)NCc1ccc(C(=N)N)cc1 [Inhibitor 35]	0.51	0.055	4.4	0.0036
CC(C)(C)OC[C@@H](NS(=O)(=O)Cc1ccccc1)C(=O)N[C@@H](CCCCNC(=O)OCc1ccccc1)C(=O)NCc1ccc(C(=N)N)cc1 [Inhibitor 36]	0.48	0.024	5.4	0.0094
CC(C)(C)OC[C@@H](NS(=O)(=O)Cc1ccccc1)C(=O)N[C@@H](CCCNC(=N)N)C(=O)NCc1ccc(C(=N)N)cc1 [Inhibitor 37]	0.34	0.065	2.6	0.04
C[C@@H](OCc1ccccc1)[C@H](NC(=O)[C@@H](COC(C)(C)C)NS(=O)(=O)Cc1ccccc1)C(=O)NCc1ccc(C(=N)N)cc1 [Inhibitor 39]	0.4	0.019	17	0.044
CC(C)(C)OC[C@@H](NS(=O)(=O)Cc1ccccc1)C(=O)N[C@@H](CO)C(=O)NCc1ccc(C(=N)N)cc1 [Inhibitor 40]	0.2	0.047	6	0.052
CC(C)(C)OC[C@@H](NS(=O)(=O)Cc1ccccc1)C(=O)N[C@@H](COCc1ccccc1)C(=O)NCc1ccc(C(=N)N)cc1 [Inhibitor 41]	0.2	0.012	1.4	0.012
CC(C)(C)OC[C@@H](NS(=O)(=O)Cc1ccccc1)C(=O)N[C@@H](CO)CC(=O)NCc1ccc(C(=N)N)cc1 [Inhibitor 42]	0.74	13	> 1000	0.21
CC(C)(C)OCC(NS(=O)(=O)Cc1ccccc1)C(=O)NC(CCOCc1ccccc1)C(=O)NCc1ccc(C(=N)N)cc1 (centres unmarked) [Inhibitor 43]	0.61	0.5	80	0.0082
CC(C)(C)OC[C@@H](NS(=O)(=O)Cc1ccccc1)C(=O)N[C@@H](Cc1ccccc1)C(=O)NCc1ccc(C(=N)N)cc1 [Inhibitor 44]	0.26	0.16	4.6	0.0055
CC(C)(C)OC[C@@H](NS(=O)(=O)Cc1ccccc1)C(=O)N[C@@H](CCc1ccccc1)C(=O)NCc1ccc(C(=N)N)cc1 [Inhibitor 45]	0.083	0.048	1.3	0.0045

Structure (SMILES)	Ki (human factor XIa) [µM]	Ki (thrombin) [µM]	Ki (human factor XIIa) [µM]	Ki (plasma kallikrein (PK)) [µM]
COC(=O)c1ccc(CS(=O)(=O)N[C@H](COC(C)(C)C)C(=O)NCC(=O)NCc2ccc(C(=N)N)cc2)cc1 [Inhibitor 47]	1.6	0.36	4.8	1.1
C[C@H](NC(=O)[C@@H](COC(C)(C)C)NS(=O)(=O)Cc1ccc(C(=O)O)cc1)C(=O)NCc1ccc(C(=N)N)cc1 [Inhibitor 48]	0.0069	0.044	9.5	0.0062
COC(=O)c1ccc(CS(=O)(=O)N[C@H](COC(C)(C)C)C(=O)N[C@@H](C)C(=O)NCc2ccc(C(=N)N)cc2)cc1 [Inhibitor 49]	0.079	0.0043	4.7	0.054
CC(C)(C)OC[C@@H](NS(=O)(=O)Cc1ccc(CN)cc1)C(=O)NCC(=O)NCc1ccc(C(=N)N)cc1 [Inhibitor 50]	2.9	0.12	1.8	4
CC(C)(C)OC[C@@H](NS(=O)(=O)Cc1ccc(C#N)cc1)C(=O)N1CCC[C@H]1C(=O)NCc1ccc(C(=N)N)cc1 [Inhibitor 51]	0.0091	6.4e-05	1.6	0.0094
N=C(N)c1ccc(CNC(=O)[C@H](CCCCN)NC(=O)[C@@H](CC2CCCCC2)NS(=O)(=O)Cc2ccccc2)cc1 [Inhibitor 53]	0.15	0.01	0.83	0.0023
N=C(N)c1ccc(CNC(=O)[C@H](CCCCNC(=O)OCc2ccccc2)NC(=O)[C@@H](CC2CCCCC2)NS(=O)(=O)Cc2ccccc2)cc1 [Inhibitor 54]	0.34	0.015	4	0.02
N=C(N)c1ccc(CNC(=O)[C@@H]2CCCN2C(=O)[C@@H](CC2CCCCC2)NS(=O)(=O)Cc2cccc(CN)c2)cc1 [Inhibitor 55]	0.17	0.0032	0.47	0.09
N=C(N)c1ccc(CNC(=O)[C@@H]2CCCN2C(=O)[C@@H](CC2CCCCC2)NS(=O)(=O)Cc2cccc(CNC(=O)CCCC(=O)O)c2)cc1 [Inhibitor 56]	0.052	< 0.001	5.6	0.044
N=C(N)c1ccc(CNC(=O)[C@H](CCC(=O)O)NC(=O)[C@@H](CC2CCCCC2)NS(=O)(=O)Cc2ccccc2)cc1 [Inhibitor 57]	0.02	0.081	4	0.03
N=C(N)c1ccc(CNC(=O)[C@H](CCCCNC(=O)COCC(=O)NCCOCCOCCOCCOCCOCCOCCOCCN)NC(=O)[C@@H](CC2CCCCC2)NS(=O)(=O)Cc2ccccc2)cc1 [Inhibitor 58]	0.23	0.008	2	0.059
N=C(N)c1ccc(CNC(=O)[C@H](CCC(=O)NCCCOCCOCCOCCCN)NC(=O)[C@@H](CC2CCCCC2)NS(=O)(=O)Cc2ccccc2)cc1 [Inhibitor 59]	0.04	0.015	0.98	0.015
N=C(N)c1ccc(CNC(=O)[C@H](CCC(=O)OCc2ccccc2)NC(=O)[C@@H](CCc2ccncc2)NS(=O)(=O)Cc2ccccc2)cc1 [Inhibitor 60]	0.031	0.17	0.094	0.0055
N=C(N)c1ccc(CNC(=O)[C@@H]2CCCN2C(=O)[C@@H](CO)NS(=O)(=O)Cc2ccc(C(=O)O)cc2)cc1 [Inhibitor 61]	0.014	0.24	29	0.0091
N=C(N)c1ccc(CNC(=O)CNC(=O)[C@@H](CC2CCCCC2)NS(=O)(=O)Cc2ccccc2)cc1 [Inhibitor 63]	25	0.009	0.7	0.011
CC(C)(C)OC[C@@H](NS(=O)(=O)Cc1ccc(C(=O)O)cc1)C(=O)N[C@@H](CO)C(=O)NCc1ccc(C(=N)N)cc1 [Inhibitor 65]	0.03	2	17	0.015
N=C(N)c1ccc(CNC(=O)[C@H](CO)NC(=O)[C@@H](CCc2ccccc2)NS(=O)(=O)Cc2ccccc2)cc1 [Inhibitor 67]	3	0.55	0.63	0.019
N=C(N)c1ccc(CNC(=O)CNC(=O)[C@@H](CCc2ccccc2)NS(=O)(=O)Cc2ccc([N+](=O)[O-])cc2)cc1 [Inhibitor 74]	0.093	0.71	0.39	0.051
N=C(N)c1ccc(CNC(=O)CNC(=O)[C@@H](Cc2cccc(C(=N)N)c2)NS(=O)(=O)Cc2ccccc2)cc1 [Inhibitor 77]	0.25	0.085	0.19	0.082
